One may read the EC50 as the concentration at which the effect is half-maximal. The IC50 is the concentration at which inhibition is half-maximal. What is called inhibition is the share of the control response that was lost under treatment.

The test system of series [1] is Plasmodium falciparum. As to the kind of experiment: MMV: Inhibition of Plasmodium falciparum K1 (EC50). It counts as functional, organism-based.
For series [2], the system named is Trypanosoma brucei brucei. As to the kind of experiment: MMV: Inhibition of Trypanosoma brucei brucei (Squib 427) (HAT in vitro). It counts as functional, organism-based.
The subject of series [3] is Plasmodium falciparum. As to the kind of experiment: MMV: Inhibition of Plasmodium falciparum 3D7 (EC50). It counts as functional, organism-based.
Series [4] is described as follows: MMV: Cytotoxicity against human fibroblasts (MRC-5) cells. Conditions: MRC-5 cells (human fibroblasts).
In series [5] the test system is Leishmania infantum. As to the kind of experiment: MMV: Inhibition of Leishmania infantum (MHOM/MA/BE/67) in vitro. It counts as functional, organism-based.
In series [6] the test system is Plasmodium falciparum. Nature of the series: MMV: Inhibition of Plasmodium falciparum 3D7 at 5uM compound concentration. It counts as functional.
The subject of series [7] is Trypanosoma brucei rhodesiense. As to the kind of experiment: MMV: Inhibition of Trypanosoma brucei rhodesiense (STIB 900) (HAT in vitro). It is filed as functional, organism-based.
Series [8] concerns Trypanosoma cruzi. As to the kind of experiment: MMV: Inhibition of Trypanosoma cruzi (Tulahuen C4 LacZ) (Chagas in vitro). It counts as functional, organism-based.

Each structure is given as a SMILES string.

Consider `O=C(Nc1ccc(Cl)c(Cl)c1)Nc1ccc(Cl)c(Cl)c1`, for which the EC50 in series [1] was found to be 1.26 µM; in series [3], 1.16 µM. The IC50 in series [2] is 2.5 µM; in series [4] it was over 32 µM; in series [5], 10.6 µM; in series [7] it was 2.17 µM; in series [8], 3.82 µM. Further, in series [6], the inhibition at 5 µM stood at 96%.

Take `Cc1ccc(-c2cc3c(nn2)-c2ccccc2C3=O)cc1`: the EC50 in series [1] was 0.165 µM; in series [3] it was 0.0944 µM. Moreover, the IC50 in series [2] was over 32 µM; in series [4] it was over 32 µM; in series [5], over 32 µM; in series [7] it was 15 µM; in series [8] it was over 32 µM. For the same compound, in series [6], the inhibition at 5 µM was found to be 99%.

For `O=C1c2ccccc2-c2nnc(-c3ccc(Br)cc3)cc21`, the EC50 was found to be 0.798 µM in series [1] and 1.07 µM in series [3]. Besides, the IC50 in series [2], in series [4], in series [5], in series [7] and in series [8] was over 32 µM in each case. For the same compound, the inhibition at 5 µM in series [6] was 99%.

Take `N=c1n(CCN2CCCCC2)c2ccccc2n1CC(O)c1cccc(Br)c1` (stereo not drawn): the EC50 in series [1] worked out at 1.4 µM; in series [3] it was 0.893 µM. In addition, the IC50 in series [2] was 2.77 µM; in series [4], 27.6 µM; in series [5], 4 µM; in series [7] it was 1.01 µM; in series [8], 4.17 µM. The compound also gave an inhibition at 5 µM in series [6] of 98%.

As to `CCOC(=O)C1=C(C)N=c2sc(=Cc3cc(Cl)ccc3O)c(=O)n2C1c1ccc(OC)cc1` (stereo not drawn), the EC50 in series [1] stood at 0.49 µM; in series [3], 0.489 µM. Moreover, the IC50 in series [2] came out at 14.2 µM; in series [4], 16.6 µM; in series [5], 16.2 µM; in series [7], 4.15 µM; in series [8] it was 14.1 µM. The compound also showed an inhibition at 5 µM in series [6] of 97%.

`COc1ccc(-c2nc(NC(=O)CS(=O)(=O)c3ccc(F)cc3)sc2C)cc1`: the EC50 in series [1] is 1.28 µM; in series [3], 0.448 µM. For the same compound, the IC50 in series [2] is 16 µM; in series [4], over 32 µM; in series [5] it was over 32 µM; in series [7] it was 16.1 µM; in series [8], 16.8 µM. This compound had an inhibition at 5 µM in series [6] of 97%.

Take `COc1cccc(NC(=O)[C@H](C(C)C)n2c(=O)[nH]c3ccccc3c2=O)c1`: the figures for the EC50 in series [1] and in series [3] were 0.203 µM and 0.139 µM, respectively. Also, the IC50 in series [2] is 4.32 µM; in series [4], over 32 µM; in series [5], 5.66 µM; in series [7], 1.05 µM; in series [8], 9.22 µM. Besides, in series [6], 5 µM produced 99% inhibition.

Consider `CCOC(=O)c1cn(CC)c2cc(N(C)CCc3ccc(OC)c(OC)c3)c(F)cc2c1=O`, for which the EC50 in series [1] was found to be 0.436 µM; in series [3], 0.205 µM. Besides, the IC50 in series [2], in series [4], in series [5], in series [7] and in series [8] was over 32 µM throughout. This compound displayed an inhibition at 5 µM in series [6] of 99%.

On to `CCC(c1ccccc1)c1nn2c(-c3cccs3)nnc2s1` (stereo not drawn), for which the EC50 in series [1] came to 0.916 µM; in series [3], 0.259 µM. Moreover, the IC50 was 16.1 µM in series [2]; over 32 µM in series [4]; 12 µM in series [5]; 13.1 µM in series [7]; 4.09 µM in series [8]. Also, the inhibition at 5 µM in series [6] stood at 99%.

With `O=C(CCl)NCCOc1ccc(Cl)cc1Cl`, the EC50 in series [1] was found to be 1 µM; in series [3] it was 0.555 µM. Also, the IC50 in series [2] amounted to 11.6 µM; in series [4], 16.2 µM; in series [5], 10.2 µM; in series [7], 6.83 µM; in series [8] it was 19.1 µM. The compound further gave an inhibition at 5 µM in series [6] of 94%.

`COc1ccc(C(=O)NC(c2ccc(Cl)cc2Cl)c2cc(Cl)c3cccnc3c2O)cc1` (stereo not drawn): the values for the EC50 in series [1] and in series [3] were 0.525 µM and 0.513 µM, respectively. The IC50 in series [2] stood at 3.94 µM; in series [4], 7.79 µM; in series [5], 4.76 µM; in series [7], 4.09 µM; in series [8], 3.85 µM. Moreover, 5 µM produced 96% inhibition in series [6].

For `CCCCNc1nc(NC(C)(C)C)nc(NC(C)(C)C)n1`, the EC50 in series [1] worked out at 0.705 µM; in series [3], 0.706 µM. In addition, the IC50 is 1.33 µM in series [2]; over 32 µM in series [4]; 2.97 µM in series [5]; 2 µM in series [7]; 9.19 µM in series [8]. Besides, the inhibition at 5 µM in series [6] was 98%.

Take `Cc1cc(Nc2ccc(C)c(Cl)c2)n2nc(C(F)(F)F)nc2n1`: the concentration giving a half-maximal response (EC50) was determined as 0.0141 µM in series [1] and 0.00671 µM in series [3]. For the same compound, the IC50 in series [2] was over 32 µM; in series [4] it was over 32 µM; in series [5], over 32 µM; in series [7], 15.9 µM; in series [8] it was 22.9 µM. Besides, the inhibition at 5 µM in series [6] came out at 98%.

For the compound `Nc1ccc(-c2nc3cc(Cc4ccc5[nH]c(-c6ccc(N)cc6)nc5c4)ccc3[nH]2)cc1`, the EC50 turned out to be 1.29 µM in series [1] and 1.42 µM in series [3]. The IC50 in series [2] was 1.89 µM; in series [4] it was 11.4 µM; in series [5], over 32 µM; in series [7], 2.27 µM; in series [8] it was 4.54 µM. In series [6], the inhibition at 5 µM was found to be 100%.

On to `CC(=O)c1sc(NC(=O)Nc2ccc(C)cc2C)nc1C`, for which the EC50 in series [1] was determined as 0.502 µM; in series [3], 0.536 µM. Further, the IC50 in series [2], in series [4], in series [5], in series [7] and in series [8] was over 32 µM in each case. In series [6], the inhibition at 5 µM came out at 64%.

As for `Cn1c(=O)n(C)c2cc(CNCCNc3ccnc4cc(Cl)ccc34)ccc21`, the EC50 in series [1] was found to be 1.51 µM; in series [3], 0.545 µM. Moreover, the IC50 in series [2] is 11.5 µM; in series [4] it was over 32 µM; in series [5] it was 17.3 µM; in series [7], 0.419 µM; in series [8], 16.9 µM. In series [6], this compound came in with an inhibition at 5 µM of 90%.

For the compound `COc1ccccc1CNC(=O)CCn1c(=O)[nH]c2ccccc2c1=O`, the EC50 in series [1] is 0.19 µM; in series [3] it was 0.0726 µM. The IC50 in series [2], in series [4], in series [5], in series [7] and in series [8] was over 32 µM throughout. In series [6], this compound yielded an inhibition at 5 µM of 64%.

As to `OC(Cn1nnc2ccccc21)Cn1c2ccc(Br)cc2c2cc(Br)ccc21` (stereo not drawn), the EC50 in series [1] was found to be 1.23 µM; in series [3], 1.26 µM. Also, the IC50 in series [2], in series [4], in series [5], in series [7] and in series [8] was over 32 µM in each case. In series [6], this compound came in with an inhibition at 5 µM of 98%.

With `CCCCNCC(O)(c1ccc(Cl)cc1)c1ccc(Cl)cc1`, the EC50 in series [1] came out at 0.525 µM; in series [3], 0.843 µM. The IC50 in series [2] is 3.27 µM; in series [4], over 32 µM; in series [5], 13.6 µM; in series [7], 3.86 µM; in series [8], 14.3 µM. In addition, in series [6], 5 µM produced 97% inhibition.

Turning to `OC(CNC1CCCCC1)Cn1c2ccc(I)cc2c2cc(I)ccc21` (stereo not drawn), the figures for the EC50 in series [1] and in series [3] were 0.298 µM and 0.466 µM, respectively. The IC50 is 0.877 µM in series [2]; 4.03 µM in series [4]; 1.59 µM in series [5]; 0.784 µM in series [7]; 0.902 µM in series [8]. In addition, the inhibition at 5 µM in series [6] turned out to be 97%.

With `COc1cccc(C(=O)NC(c2ccc(C)cc2)c2cc(Cl)c3cccnc3c2O)c1` (stereo not drawn), the EC50 in series [1] was found to be 0.527 µM; in series [3] it was 0.393 µM. The concentration for half-maximal inhibition (IC50) is 3.49 µM in series [2]; over 32 µM in series [4]; over 32 µM in series [5]; 4.06 µM in series [7]; 3.77 µM in series [8]. Moreover, the inhibition at 5 µM in series [6] was 97%.

On to `CCOc1ccc(/C=C/c2nc(=O)c3ccccc3o2)cc1`, for which the EC50 in series [1] was found to be 0.893 µM; in series [3] it was 0.56 µM. The IC50 in series [2] was over 32 µM; in series [4] it was over 32 µM; in series [5] it was over 32 µM; in series [7] it was 30.5 µM; in series [8], 17.9 µM. The same compound came in with an inhibition at 5 µM in series [6] of 95%.

`O=C(Nc1ccc(F)c(Cl)c1)Nc1ccc(Cl)c(Cl)c1`: the EC50 in series [1] was found to be 2.13 µM; in series [3], 2.06 µM. For the same compound, the IC50 is 3.94 µM in series [2]; 4.51 µM in series [4]; 16.2 µM in series [5]; 3.33 µM in series [7]; 3.7 µM in series [8]. This compound gave an inhibition at 5 µM in series [6] of 95%.

As for `COc1ccc(CN2CCN(Cc3ccccc3)CC2)c(O)c1`, the EC50 in series [1] was found to be 0.789 µM; in series [3], 1.08 µM. For the same compound, the IC50 in series [2], in series [4], in series [5], in series [7] and in series [8] was over 32 µM in each case. In series [6], this compound displayed an inhibition at 5 µM of 96%.

As to `CCCCCCc1cc(O)c2c3c(c(=O)oc2c1)CCC(C)C3` (stereo not drawn), the values for the EC50 in series [1] and in series [3] were 0.467 µM and 0.534 µM, respectively. The IC50 in series [2] is 4.18 µM; in series [4], over 32 µM; in series [5], over 32 µM; in series [7], 4.21 µM; in series [8] it was over 32 µM. The inhibition at 5 µM in series [6] came to 96%.

For the compound `c1ccc(Cn2c(N=Nc3c(Nc4ccccc4)ccc4ccccc34)nc3ccccc32)cc1`, the figures for the EC50 in series [1] and in series [3] were 0.048 µM and 0.0368 µM, respectively. The IC50 worked out at 0.88 µM in series [2]; 0.389 µM in series [4]; 3.01 µM in series [5]; 0.217 µM in series [7]; 0.136 µM in series [8]. In series [6], this compound showed an inhibition at 5 µM of 96%.
